The values that follow come from patent US20250243171A1, “QUINAZOLINE COMPOUNDS FOR TREATMENT OF DISEASE” (Arthrosi Therapeutics, Inc., priority 2021, published 2025).

Each structure is given as a SMILES string.

What all share (assay): EC50 assay: Ba/F3 stable cell proliferation (CCK-8, 72 h)
What all share (format): cell-based

Assay [1] concerns the target T1, Ba/F3 stable cells (Homo sapiens, UniProt P00533, INS763FQEA, cells depend on it).
T1 construct: EC50 Ba/F3-EGFR A763-Y764insFQEA; other: Ba/F3-EGFR A763-Y764insFQEA cells, 72 h, CCK-8
As to conditions: Ba/F3-EGFR A763-Y764insFQEA cells. In a few lines:
(§1)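 Ba/F3 stable cells were seeded at 4,000 cells/90 μL/well in 96-well plates and held 2 h at 37° C. in 5% CO2, then given 10 μL of serially titrated compound (0.1% DMSO final). After 72 h at 37° C., CCK-8 reagent was added for 4 hours and absorbance read at 450 nm to derive EC50.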

In assay [2] the target is T2, Ba/F3 stable cells (Homo sapiens, UniProt P00533, T790M/L858R, cells depend on it).
T2 construct: EC50 Ba/F3-EGFR L858R-T790M; other: Ba/F3-EGFR L858R-T790M cells, 72 h, CCK-8
T2 sequence (P00533 whole entry T790M/L858R): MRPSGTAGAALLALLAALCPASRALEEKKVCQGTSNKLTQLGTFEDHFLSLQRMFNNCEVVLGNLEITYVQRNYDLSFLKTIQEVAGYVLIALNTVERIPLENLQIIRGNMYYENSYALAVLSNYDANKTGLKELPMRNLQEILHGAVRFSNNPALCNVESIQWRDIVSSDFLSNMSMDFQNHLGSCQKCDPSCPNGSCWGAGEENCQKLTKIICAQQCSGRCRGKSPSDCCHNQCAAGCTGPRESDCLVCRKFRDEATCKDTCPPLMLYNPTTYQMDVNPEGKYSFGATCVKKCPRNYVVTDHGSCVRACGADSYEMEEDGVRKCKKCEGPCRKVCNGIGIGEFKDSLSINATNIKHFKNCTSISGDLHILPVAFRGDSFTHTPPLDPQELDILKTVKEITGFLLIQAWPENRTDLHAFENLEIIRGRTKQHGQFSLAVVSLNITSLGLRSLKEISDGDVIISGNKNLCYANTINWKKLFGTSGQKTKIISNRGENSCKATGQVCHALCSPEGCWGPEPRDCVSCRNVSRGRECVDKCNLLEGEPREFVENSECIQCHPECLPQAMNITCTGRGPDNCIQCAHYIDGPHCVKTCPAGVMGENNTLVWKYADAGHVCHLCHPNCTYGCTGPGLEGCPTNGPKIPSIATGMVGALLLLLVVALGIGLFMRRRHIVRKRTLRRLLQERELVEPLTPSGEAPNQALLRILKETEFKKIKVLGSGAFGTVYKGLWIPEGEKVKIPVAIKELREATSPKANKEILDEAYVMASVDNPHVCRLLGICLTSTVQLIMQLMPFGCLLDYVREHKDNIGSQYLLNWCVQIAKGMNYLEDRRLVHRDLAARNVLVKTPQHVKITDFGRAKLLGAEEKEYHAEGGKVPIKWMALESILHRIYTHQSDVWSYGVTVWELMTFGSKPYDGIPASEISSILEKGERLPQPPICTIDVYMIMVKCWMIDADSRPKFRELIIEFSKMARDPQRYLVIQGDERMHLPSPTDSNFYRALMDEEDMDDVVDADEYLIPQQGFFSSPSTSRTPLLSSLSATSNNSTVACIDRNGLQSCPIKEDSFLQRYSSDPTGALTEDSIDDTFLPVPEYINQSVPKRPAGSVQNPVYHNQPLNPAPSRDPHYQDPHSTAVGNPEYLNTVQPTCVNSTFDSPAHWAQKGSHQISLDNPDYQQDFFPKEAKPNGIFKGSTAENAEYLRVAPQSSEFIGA
As to conditions: Ba/F3-EGFR L858R-T790M cells. An outline of the steps:
as §1

The target of assay [3] is T3, Ba/F3 stable cells (Homo sapiens, UniProt P00533, DUP771-773, cells depend on it).
T3 construct: EC50 Ba/F3-EGFR H773-V774insNPH; other: Ba/F3-EGFR H773-V774insNPH cells, 72 h, CCK-8
T3 sequence (P00533 with tags, fused parts or gaps DUP771-773): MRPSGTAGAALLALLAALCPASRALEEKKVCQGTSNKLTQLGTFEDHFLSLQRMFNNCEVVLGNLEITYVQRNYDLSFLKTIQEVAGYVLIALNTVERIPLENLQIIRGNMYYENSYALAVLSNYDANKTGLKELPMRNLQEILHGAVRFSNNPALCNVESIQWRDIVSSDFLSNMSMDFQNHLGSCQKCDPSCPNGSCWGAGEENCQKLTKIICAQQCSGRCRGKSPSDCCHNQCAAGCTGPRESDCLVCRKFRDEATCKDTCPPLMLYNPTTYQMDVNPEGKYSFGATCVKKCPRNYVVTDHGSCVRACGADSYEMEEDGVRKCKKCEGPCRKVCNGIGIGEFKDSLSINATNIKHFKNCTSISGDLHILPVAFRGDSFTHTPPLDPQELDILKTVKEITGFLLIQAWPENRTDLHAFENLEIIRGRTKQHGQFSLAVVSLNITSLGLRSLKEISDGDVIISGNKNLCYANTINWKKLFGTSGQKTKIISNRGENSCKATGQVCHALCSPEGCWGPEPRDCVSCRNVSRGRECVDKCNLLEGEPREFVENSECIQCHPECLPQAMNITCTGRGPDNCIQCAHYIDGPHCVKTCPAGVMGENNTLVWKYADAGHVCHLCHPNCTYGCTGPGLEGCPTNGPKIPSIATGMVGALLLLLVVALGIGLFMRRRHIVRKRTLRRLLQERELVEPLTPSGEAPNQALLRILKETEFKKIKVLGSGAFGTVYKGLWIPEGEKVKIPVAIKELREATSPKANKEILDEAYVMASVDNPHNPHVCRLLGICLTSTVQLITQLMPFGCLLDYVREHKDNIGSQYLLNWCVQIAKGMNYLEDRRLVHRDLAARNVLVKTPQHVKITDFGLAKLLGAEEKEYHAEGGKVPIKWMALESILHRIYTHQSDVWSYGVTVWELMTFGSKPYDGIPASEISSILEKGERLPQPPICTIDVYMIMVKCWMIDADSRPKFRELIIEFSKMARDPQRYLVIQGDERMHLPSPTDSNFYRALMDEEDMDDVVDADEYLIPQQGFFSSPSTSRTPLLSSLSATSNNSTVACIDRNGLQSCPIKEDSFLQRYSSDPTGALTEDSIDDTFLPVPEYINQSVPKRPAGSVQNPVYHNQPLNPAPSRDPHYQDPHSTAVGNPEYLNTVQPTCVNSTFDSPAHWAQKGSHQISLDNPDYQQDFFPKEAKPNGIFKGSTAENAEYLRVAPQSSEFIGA
Particulars: Ba/F3-EGFR H773-V774insNPH cells. In a few lines: as §1

Assay [4] addresses T4, Ba/F3 stable cells (Homo sapiens, UniProt P00533, DUP768-770, cells depend on it).
T4 construct: EC50 Ba/F3-EGFR D770-N771insSVD; other: Ba/F3-EGFR D770-N771insSVD cells, 72 h, CCK-8
As to conditions: Ba/F3-EGFR D770-N771insSVD cells. In a few lines:
as §1

Assay [5] concerns the target T5, Ba/F3 stable cells (Homo sapiens, UniProt P00533, DUP767-769, cells depend on it).
T5 construct: EC50 Ba/F3-EGFR V769-D770insASV; other: Ba/F3-EGFR V769-D770insASV cells, 72 h, CCK-8
As to conditions: Ba/F3-EGFR V769-D770insASV cells. An outline of the steps:
as §1

The target in assay [6] is T6, Ba/F3 stable cells (Homo sapiens, UniProt P04626, DUP772-775, cells depend on it).
T6 construct: EC50 Ba/F3-HER2 A775-G776insYVMA; other: Ba/F3-HER2 A775-G776insYVMA cells, 72 h, CCK-8
As to conditions: Ba/F3-HER2 A775-G776insYVMA cells. In a few lines:
as §1

T4 sequence (P00533 with tags, fused parts or gaps DUP768-770): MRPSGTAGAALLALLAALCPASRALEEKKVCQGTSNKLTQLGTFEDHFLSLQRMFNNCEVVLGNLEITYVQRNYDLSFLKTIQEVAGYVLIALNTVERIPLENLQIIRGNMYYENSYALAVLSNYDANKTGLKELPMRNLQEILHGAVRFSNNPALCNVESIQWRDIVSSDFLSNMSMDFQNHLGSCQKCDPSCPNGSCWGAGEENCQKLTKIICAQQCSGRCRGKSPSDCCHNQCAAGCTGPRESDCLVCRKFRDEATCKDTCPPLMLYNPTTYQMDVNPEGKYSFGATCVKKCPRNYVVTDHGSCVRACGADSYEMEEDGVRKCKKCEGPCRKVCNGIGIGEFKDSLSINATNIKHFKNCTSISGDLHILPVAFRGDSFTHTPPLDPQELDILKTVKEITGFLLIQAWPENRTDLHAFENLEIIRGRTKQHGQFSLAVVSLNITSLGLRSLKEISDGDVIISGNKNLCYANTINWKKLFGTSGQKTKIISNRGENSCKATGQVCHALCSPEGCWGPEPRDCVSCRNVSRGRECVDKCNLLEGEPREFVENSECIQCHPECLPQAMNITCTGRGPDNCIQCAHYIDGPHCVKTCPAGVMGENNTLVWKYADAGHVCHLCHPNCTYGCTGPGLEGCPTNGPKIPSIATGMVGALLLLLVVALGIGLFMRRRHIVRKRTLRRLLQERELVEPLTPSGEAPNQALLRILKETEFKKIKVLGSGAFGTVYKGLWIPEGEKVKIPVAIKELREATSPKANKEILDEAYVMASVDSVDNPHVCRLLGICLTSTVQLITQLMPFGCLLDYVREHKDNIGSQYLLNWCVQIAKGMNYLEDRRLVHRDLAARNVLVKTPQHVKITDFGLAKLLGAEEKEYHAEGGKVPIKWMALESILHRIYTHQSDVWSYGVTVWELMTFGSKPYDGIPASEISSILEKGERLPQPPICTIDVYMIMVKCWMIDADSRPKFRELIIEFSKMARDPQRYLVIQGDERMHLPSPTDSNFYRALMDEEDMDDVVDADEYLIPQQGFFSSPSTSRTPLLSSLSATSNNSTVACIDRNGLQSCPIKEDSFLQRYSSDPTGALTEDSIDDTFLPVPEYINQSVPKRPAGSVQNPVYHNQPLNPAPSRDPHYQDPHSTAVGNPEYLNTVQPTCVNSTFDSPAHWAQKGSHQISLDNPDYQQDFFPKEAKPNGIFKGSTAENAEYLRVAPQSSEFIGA
T1 sequence (P00533 with tags, fused parts or gaps INS763FQEA): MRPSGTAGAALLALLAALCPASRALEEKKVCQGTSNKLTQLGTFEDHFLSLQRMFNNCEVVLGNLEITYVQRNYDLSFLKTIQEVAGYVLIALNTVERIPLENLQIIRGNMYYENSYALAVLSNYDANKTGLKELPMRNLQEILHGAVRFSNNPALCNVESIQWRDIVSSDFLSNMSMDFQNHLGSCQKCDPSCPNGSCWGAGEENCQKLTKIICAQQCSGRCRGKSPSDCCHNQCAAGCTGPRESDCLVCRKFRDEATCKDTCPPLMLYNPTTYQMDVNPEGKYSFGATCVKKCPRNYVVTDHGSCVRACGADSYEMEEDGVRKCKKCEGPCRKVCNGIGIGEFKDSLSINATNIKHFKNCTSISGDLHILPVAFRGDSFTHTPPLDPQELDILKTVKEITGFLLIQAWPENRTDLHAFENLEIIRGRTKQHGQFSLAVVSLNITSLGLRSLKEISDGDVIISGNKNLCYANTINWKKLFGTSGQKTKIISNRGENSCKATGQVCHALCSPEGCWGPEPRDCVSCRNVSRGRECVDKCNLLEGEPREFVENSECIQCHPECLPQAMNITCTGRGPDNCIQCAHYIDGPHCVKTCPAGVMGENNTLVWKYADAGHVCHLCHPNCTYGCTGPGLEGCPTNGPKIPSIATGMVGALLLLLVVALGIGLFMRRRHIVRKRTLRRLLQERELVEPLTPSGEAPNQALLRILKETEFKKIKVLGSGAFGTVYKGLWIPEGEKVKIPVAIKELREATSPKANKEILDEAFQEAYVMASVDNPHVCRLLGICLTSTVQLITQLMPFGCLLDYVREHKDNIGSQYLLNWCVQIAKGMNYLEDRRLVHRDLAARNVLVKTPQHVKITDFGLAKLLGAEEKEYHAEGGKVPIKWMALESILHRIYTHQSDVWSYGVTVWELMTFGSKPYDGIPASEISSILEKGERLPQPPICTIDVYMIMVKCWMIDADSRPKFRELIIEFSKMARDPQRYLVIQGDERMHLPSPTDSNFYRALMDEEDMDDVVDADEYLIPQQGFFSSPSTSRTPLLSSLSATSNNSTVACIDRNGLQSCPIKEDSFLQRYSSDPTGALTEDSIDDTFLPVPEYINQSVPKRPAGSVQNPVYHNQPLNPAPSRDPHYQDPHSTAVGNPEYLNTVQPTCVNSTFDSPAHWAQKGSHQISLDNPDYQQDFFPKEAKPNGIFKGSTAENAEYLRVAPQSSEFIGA

Turning to `C=CC(=O)N1CCC(Oc2cc3c(NCc4cccc(F)c4)ncnc3cc2OC)CC1` [Compound 111, 1-(4-((4-((3-fluorobenzyl)amino)-7-methoxyquinazolin-6-yl)oxy)piperidin-1-yl)prop-2-en-1-one], the EC50 in assay [1] is at most 0.2 µM; in assay [2] it was 0.2 to 1 µM; in assay [3] it was at most 0.2 µM; in assay [4], 0.2 to 1 µM; in assay [5], at most 0.2 µM; in assay [6], at most 0.2 µM.
Consider `C=CC(=O)N1CCC(Oc2cc3c(NCc4ccccc4F)ncnc3cc2OC)CC1` [Compound 112, 1-(4-((4-((2-fluorobenzyl)amino)-7-methoxyquinazolin-6-yl)oxy)piperidin-1-yl)prop-2-en-1-one], for which the EC50 in assay [1] was at most 0.2 µM; in assay [2], 0.2 to 1 µM; in assay [3], 0.2 to 1 µM; in assay [4], over 1 µM; in assay [5], 0.2 to 1 µM; in assay [6] it was at most 0.2 µM.
Regarding `C=CC(=O)N1CCC(Oc2cc3c(NCc4ccc(Cl)c(F)c4)ncnc3cc2OC)CC1` [Compound 113, 1-(4-((4-((4-chloro-3-fluorobenzyl)amino)-7-methoxyquinazolin-6-yl)oxy)piperidin-1-yl)prop-2-en-1-one], the EC50 in assay [1] was at most 0.2 µM; in assay [2], over 1 µM; in assay [3], 0.2 to 1 µM; in assay [4] it was over 1 µM; in assay [5] it was 0.2 to 1 µM; in assay [6] it was at most 0.2 µM.
Turning to `C=CC(=O)N1CCC(Oc2cc3c(NCc4ccc(F)c(Cl)c4)ncnc3cc2OC)CC1` [Compound 114, 1-(4-((4-((3-chloro-4-fluorobenzyl)amino)-7-methoxyquinazolin-6-yl)oxy)piperidin-1-yl)prop-2-en-1-one], the EC50 in assay [1] is at most 0.2 µM; in assay [2], at most 0.2 µM; in assay [3], 0.2 to 1 µM; in assay [4], 0.2 to 1 µM; in assay [5], 0.2 to 1 µM; in assay [6], at most 0.2 µM.
Take `C=CC(=O)N1CCC(Oc2cc3c(NCc4ccc(Cl)c(Cl)c4)ncnc3cc2OC)CC1` [Compound 115, 1-(4-((4-((3,4-dichlorobenzyl)amino)-7-methoxyquinazolin-6-yl)oxy)piperidin-1-yl)prop-2-en-1-one]: the 50% effective concentration (EC50) in assay [1] was at most 0.2 µM; in assay [2], 0.2 to 1 µM; in assay [3], over 1 µM; in assay [4], over 1 µM; in assay [5], over 1 µM; in assay [6] it was at most 0.2 µM.
On to `C=CC(=O)N1CCC(Oc2cc3c(NCc4cccc(Cl)c4F)ncnc3cc2OC)CC1` [Compound 116, 1-(4-((4-((3-chloro-2-fluorobenzyl)amino)-7-methoxyquinazolin-6-yl)oxy)piperidin-1-yl)prop-2-en-1-one], for which the EC50 is at most 0.2 µM in assay [1]; 0.2 to 1 µM in assay [2]; at most 0.2 µM in assay [3]; 0.2 to 1 µM in assay [4]; at most 0.2 µM in assay [5]; at most 0.2 µM in assay [6].
Take `C=CC(=O)N1CCC(Oc2cc3c(NCc4cc(Cl)cc(Cl)c4)ncnc3cc2OC)CC1` [Compound 117, 1-(4-((4-((3,5-dichlorobenzyl)amino)-7-methoxyquinazolin-6-yl)oxy)piperidin-1-yl)prop-2-en-1-one]: the EC50 in assay [1] was 0.2 to 1 µM; in assay [2] it was 0.2 to 1 µM; in assay [3], over 1 µM; in assay [4], over 1 µM; in assay [5], over 1 µM; in assay [6], over 1 µM.
With `C=CC(=O)N1CCC(Oc2cc3c(NCc4cc(Cl)ccc4F)ncnc3cc2OC)CC1` [Compound 118, 1-(4-((4-((5-chloro-2-fluorobenzyl)amino)-7-methoxyquinazolin-6-yl)oxy)piperidin-1-yl)prop-2-en-1-one], the EC50 in assay [1] was at most 0.2 µM; in assay [2] it was over 1 µM; in assay [3] it was over 1 µM; in assay [4] it was over 1 µM; in assay [5], over 1 µM; in assay [6] it was 0.2 to 1 µM.
On to `C=CC(=O)N1CCC(Oc2cc3c(NCc4cc(Cl)ccc4Cl)ncnc3cc2OC)CC1` [Compound 119, 1-(4-((4-((2,5-dichlorobenzyl)amino)-7-methoxyquinazolin-6-yl)oxy)piperidin-1-yl)prop-2-en-1-one], for which the EC50 is at most 0.2 µM in assay [1]; over 1 µM in assay [2]; over 1 µM in assay [3]; over 1 µM in assay [4]; over 1 µM in assay [5]; over 1 µM in assay [6].
`C=CC(=O)N1CCC(Oc2cc3c(NCc4cccc(Br)c4)ncnc3cc2OC)CC1` [Compound 120, 1-(4-((4-((3-bromobenzyl)amino)-7-methoxyquinazolin-6-yl)oxy)piperidin-1-yl)prop-2-en-1-one]: the concentration for a half-maximal effect (EC50) in assay [1] was at most 0.2 µM; in assay [2], 0.2 to 1 µM; in assay [3], at most 0.2 µM; in assay [4], at most 0.2 µM; in assay [5], at most 0.2 µM; in assay [6] it was 0.2 to 1 µM.
With `C=CC(=O)N1CCC(Oc2cc3c(NCc4cccc(C)c4)ncnc3cc2OC)CC1` [Compound 121, 1-(4-((7-methoxy-4-((3-methylbenzyl)amino)quinazolin-6-yl)oxy)piperidin-1-yl)prop-2-en-1-one], the EC50 in assay [1] is at most 0.2 µM; in assay [2], 0.2 to 1 µM; in assay [3], 0.2 to 1 µM; in assay [4] it was 0.2 to 1 µM; in assay [5] it was 0.2 to 1 µM; in assay [6], 0.2 to 1 µM.
As to `C=CC(=O)N1CCC(Oc2cc3c(NCc4cc(F)cc(Cl)c4)ncnc3cc2OC)CC1` [Compound 122, 1-(4-((4-((3-chloro-5-fluorobenzyl)amino)-7-methoxyquinazolin-6-yl)oxy)piperidin-1-yl)prop-2-en-1-one], the EC50 in assay [1] was at most 0.2 µM; in assay [2], 0.2 to 1 µM; in assay [3], 0.2 to 1 µM; in assay [4], 0.2 to 1 µM; in assay [5], 0.2 to 1 µM; in assay [6], over 1 µM.
`C=CC(=O)N1CCC(Oc2cc3c(NCc4ccccc4)ncnc3cc2OC)CC1` [Compound 123, 1-(4-((4-(benzylamino)-7-methoxyquinazolin-6-yl)oxy)piperidin-1-yl)prop-2-en-1-one]: the EC50 is at most 0.2 µM in assay [1]; 0.2 to 1 µM in assay [2]; at most 0.2 µM in assay [3]; 0.2 to 1 µM in assay [4]; at most 0.2 µM in assay [5]; 0.2 to 1 µM in assay [6].
For the molecule `C=CC(=O)N1CCC(Oc2cc3c(NCc4cccc(C#N)c4)ncnc3cc2OC)CC1` [Compound 124, 3-(((6-((1-acryloylpiperidin-4-yl)oxy)-7-methoxyquinazolin-4-yl)amino)methyl)benzonitrile], the EC50 in assay [1] is at most 0.2 µM; in assay [2], over 1 µM; in assay [3], over 1 µM; in assay [4], over 1 µM; in assay [5], over 1 µM; in assay [6] it was over 1 µM.
`C=CC(=O)N1CCC(Oc2cc3c(NCc4cccc(I)c4)ncnc3cc2OC)CC1` [Compound 125, 1-(4-((4-((3-iodobenzyl)amino)-7-methoxyquinazolin-6-yl)oxy)piperidin-1-yl)prop-2-en-1-one]: the EC50 in assay [1] was at most 0.2 µM; in assay [2] it was 0.2 to 1 µM; in assay [3], 0.2 to 1 µM; in assay [4] it was 0.2 to 1 µM; in assay [5], 0.2 to 1 µM; in assay [6], 0.2 to 1 µM.
For `C=CC(=O)N1CCC(Oc2cc3c(NC(C(=O)O)c4cccc(Cl)c4)ncnc3cc2OC)CC1` (stereo not drawn) [Compound 126, 2-((6-((1-acryloylpiperidin-4-yl)oxy)-7-methoxyquinazolin-4-yl)amino)-2-(3-chlorophenyl)acetic acid], the EC50 in assay [1], in assay [2], in assay [3], in assay [4], in assay [5] and in assay [6] was over 1 µM each time.
For `C=CC(=O)N1CCC(Oc2cc3c(NC(C(N)=O)c4cccc(Cl)c4)ncnc3cc2OC)CC1` (stereo not drawn) [Compound 127, 2-((6-((1-acryloylpiperidin-4-yl)oxy)-7-methoxyquinazolin-4-yl)amino)-2-(3-chlorophenyl)acetamide], the EC50 in assay [1] is at most 0.2 µM; in assay [2] it was over 1 µM; in assay [3] it was over 1 µM; in assay [4], over 1 µM; in assay [5], 0.2 to 1 µM; in assay [6] it was over 1 µM.
